Experimental data reported in ChEMBL document CHEMBL5465560, “Selectivity Literature for EUbOPEN Chemogenomic Library” (2024).

Experiments:
[1] = biological target: Serine/threonine-protein kinase WNK1 (Homo sapiens) (UniProt Q9H4A3); experiment: Selectivity interaction (KinomeScan (DiscoverX)) EUB0001049a WNK1; conditions: at 1 µM
[2] = biological target: T1, Mitogen-activated protein kinase 13 (Homo sapiens) (UniProt O15264); experiment: Selectivity interaction (Millipore kinase profiler) EUB0000124b MAPK13; conditions: at 10 µM
T1 sequence (whole entry): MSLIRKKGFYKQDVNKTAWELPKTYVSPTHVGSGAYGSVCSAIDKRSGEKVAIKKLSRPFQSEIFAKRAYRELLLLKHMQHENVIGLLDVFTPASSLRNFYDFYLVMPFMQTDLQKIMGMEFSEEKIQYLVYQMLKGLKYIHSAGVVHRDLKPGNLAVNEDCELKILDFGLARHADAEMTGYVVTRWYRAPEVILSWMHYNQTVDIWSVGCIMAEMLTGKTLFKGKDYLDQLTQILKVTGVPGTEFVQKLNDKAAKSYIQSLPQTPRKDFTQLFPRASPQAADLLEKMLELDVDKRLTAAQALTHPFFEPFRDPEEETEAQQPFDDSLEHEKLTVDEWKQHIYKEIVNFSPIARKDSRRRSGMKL

[3] = biological target: Myosin-IIIa (Homo sapiens) (UniProt Q8NEV4); experiment: Selectivity interaction (KinomeScan (DiscoverX)) EUB0000666a MYO3A; conditions: at 10 µM
[4] = test system: Proto-oncogene tyrosine-protein kinase receptor Ret (Homo sapiens), P07949 [M918T]; conditions: at 10 µM
[5] = test system: Phosphatidylinositol 4,5-bisphosphate 3-kinase catalytic subunit alpha isoform (Homo sapiens), P42336 [E545K]; conditions: at 10 µM
[6] = biological target: Dual specificity protein kinase CLK3 (Homo sapiens, UniProt P49761); experiment: Selectivity interaction (Kinase panel (DSF assay)) EUB0001559a CLK3
Sequence of Dual specificity protein kinase CLK3 (P49761 whole entry, looked up): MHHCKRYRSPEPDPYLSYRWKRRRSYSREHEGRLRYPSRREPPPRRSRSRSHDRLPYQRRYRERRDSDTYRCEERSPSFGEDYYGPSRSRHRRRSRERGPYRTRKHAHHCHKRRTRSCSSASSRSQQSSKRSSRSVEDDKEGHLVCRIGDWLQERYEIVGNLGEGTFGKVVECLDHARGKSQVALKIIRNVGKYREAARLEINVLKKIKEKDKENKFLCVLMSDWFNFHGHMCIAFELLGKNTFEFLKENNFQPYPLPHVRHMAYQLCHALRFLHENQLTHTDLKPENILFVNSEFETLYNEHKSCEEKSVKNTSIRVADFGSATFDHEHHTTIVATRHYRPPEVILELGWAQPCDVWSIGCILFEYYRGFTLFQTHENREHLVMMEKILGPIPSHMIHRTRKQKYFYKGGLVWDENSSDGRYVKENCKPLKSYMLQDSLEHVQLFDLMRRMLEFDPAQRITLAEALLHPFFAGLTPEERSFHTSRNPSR

[7] = Selectivity interaction (KinomeScan (DiscoverX)) EUB0000595a PKNB; conditions: at 10 µM
[8] = biological target: T2, Cytoplasmic tyrosine-protein kinase BMX (Homo sapiens) (UniProt P51813); experiment: Selectivity interaction (Kinase screening (Nanosyn)) EUB0000604a BMX
T2 sequence (whole entry): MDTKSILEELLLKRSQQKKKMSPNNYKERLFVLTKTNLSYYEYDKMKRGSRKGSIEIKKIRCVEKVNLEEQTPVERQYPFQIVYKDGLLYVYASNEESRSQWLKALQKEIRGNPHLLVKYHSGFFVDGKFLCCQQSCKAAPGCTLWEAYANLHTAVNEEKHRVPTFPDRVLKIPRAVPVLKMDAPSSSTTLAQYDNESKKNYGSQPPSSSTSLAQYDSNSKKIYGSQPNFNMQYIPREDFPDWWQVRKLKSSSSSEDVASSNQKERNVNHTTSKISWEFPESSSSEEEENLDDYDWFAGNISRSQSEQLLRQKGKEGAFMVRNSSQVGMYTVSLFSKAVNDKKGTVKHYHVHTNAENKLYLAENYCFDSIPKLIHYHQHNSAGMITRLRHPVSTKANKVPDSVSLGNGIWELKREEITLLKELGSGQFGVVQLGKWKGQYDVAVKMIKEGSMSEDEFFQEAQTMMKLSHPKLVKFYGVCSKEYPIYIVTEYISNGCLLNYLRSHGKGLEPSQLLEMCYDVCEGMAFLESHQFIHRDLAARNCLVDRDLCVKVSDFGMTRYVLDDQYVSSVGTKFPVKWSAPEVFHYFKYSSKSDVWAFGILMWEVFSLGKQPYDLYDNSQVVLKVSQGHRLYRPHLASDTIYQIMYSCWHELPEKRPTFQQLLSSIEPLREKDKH

[9] = biological target: Mitogen-activated protein kinase 6 (Homo sapiens) (UniProt Q16659); conditions: at 10 µM
[10] = biological target: T3, Ephrin type-B receptor 4 (Homo sapiens) (UniProt P54760); conditions: at 10 µM
T3 sequence (whole entry): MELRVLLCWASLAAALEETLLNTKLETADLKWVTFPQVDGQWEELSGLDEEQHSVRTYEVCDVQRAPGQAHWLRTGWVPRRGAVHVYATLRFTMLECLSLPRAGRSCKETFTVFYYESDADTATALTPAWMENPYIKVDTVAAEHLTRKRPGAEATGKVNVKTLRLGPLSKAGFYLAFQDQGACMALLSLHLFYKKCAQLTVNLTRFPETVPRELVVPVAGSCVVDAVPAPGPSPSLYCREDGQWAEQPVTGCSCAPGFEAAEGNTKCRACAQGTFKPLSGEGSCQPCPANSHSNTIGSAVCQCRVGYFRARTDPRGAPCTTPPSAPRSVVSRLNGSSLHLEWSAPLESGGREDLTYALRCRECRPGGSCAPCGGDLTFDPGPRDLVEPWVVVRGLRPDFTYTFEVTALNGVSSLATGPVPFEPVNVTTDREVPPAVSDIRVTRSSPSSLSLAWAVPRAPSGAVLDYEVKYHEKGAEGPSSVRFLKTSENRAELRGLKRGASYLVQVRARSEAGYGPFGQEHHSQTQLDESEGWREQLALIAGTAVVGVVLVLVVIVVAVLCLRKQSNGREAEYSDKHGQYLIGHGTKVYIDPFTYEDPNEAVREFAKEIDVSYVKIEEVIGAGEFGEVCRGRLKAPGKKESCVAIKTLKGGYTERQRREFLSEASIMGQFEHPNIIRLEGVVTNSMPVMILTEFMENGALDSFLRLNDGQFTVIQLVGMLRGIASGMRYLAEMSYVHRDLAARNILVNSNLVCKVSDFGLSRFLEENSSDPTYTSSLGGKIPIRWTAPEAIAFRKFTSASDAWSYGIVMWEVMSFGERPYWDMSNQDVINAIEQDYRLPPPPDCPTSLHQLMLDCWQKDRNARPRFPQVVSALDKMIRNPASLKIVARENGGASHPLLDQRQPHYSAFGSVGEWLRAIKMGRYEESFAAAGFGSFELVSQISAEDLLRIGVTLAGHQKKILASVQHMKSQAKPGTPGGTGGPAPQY

[11] = biological target: Ribosomal protein S6 kinase alpha-4 (Homo sapiens) (UniProt O75676); conditions: at 10 µM
[12] = biological target: Ribosomal protein S6 kinase alpha-5 (Homo sapiens) (UniProt O75582); experiment: Selectivity interaction (ActivX KiNativ screen (ex vivo kinase selectivity in human PBMCs)) EUB0001619a RPS6KA5; format: cell-based; conditions: PBMC, at 1 µM
[13] = biological target: Serine/threonine-protein kinase 32C (Homo sapiens) (UniProt Q86UX6); experiment: Selectivity interaction (KinomeScan (DiscoverX)) EUB0000655a STK32C; conditions: at 10 µM
Sequence of Serine/threonine-protein kinase 32C (Homo sapiens) (Q86UX6 whole entry): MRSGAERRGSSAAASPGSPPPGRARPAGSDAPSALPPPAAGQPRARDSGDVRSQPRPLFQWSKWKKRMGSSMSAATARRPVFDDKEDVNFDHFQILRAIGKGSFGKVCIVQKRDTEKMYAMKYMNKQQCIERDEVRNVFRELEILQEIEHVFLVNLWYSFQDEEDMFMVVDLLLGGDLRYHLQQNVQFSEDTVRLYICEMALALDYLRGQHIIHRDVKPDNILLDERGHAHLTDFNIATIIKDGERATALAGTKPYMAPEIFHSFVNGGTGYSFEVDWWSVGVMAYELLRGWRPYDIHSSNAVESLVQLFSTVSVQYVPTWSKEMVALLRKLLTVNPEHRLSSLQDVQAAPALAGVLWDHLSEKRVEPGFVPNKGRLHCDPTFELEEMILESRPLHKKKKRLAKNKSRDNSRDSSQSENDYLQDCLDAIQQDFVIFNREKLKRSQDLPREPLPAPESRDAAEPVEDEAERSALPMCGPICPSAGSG

[14] = biological target: Ribosomal protein S6 kinase alpha-6 (Homo sapiens, UniProt Q9UK32); experiment: Selectivity interaction (KinomeScan (DiscoverX)) EUB0000607a RPS6KA6; conditions: at 10 µM
[15] = biological target: Histone-lysine N-methyltransferase 2A (Homo sapiens) (UniProt Q03164); experiment: Selectivity interaction (Methyltransferase screen (radiometric assays, panel of 8 PRMTs, 21 protein lysine methyltransferases, 3 DNA methyltransferases, and one RNA methyltransferase)) EUB0000272b MLL
Sequence of Histone-lysine N-methyltransferase 2A (Homo sapiens) (Q03164 1-2718 limits assumed): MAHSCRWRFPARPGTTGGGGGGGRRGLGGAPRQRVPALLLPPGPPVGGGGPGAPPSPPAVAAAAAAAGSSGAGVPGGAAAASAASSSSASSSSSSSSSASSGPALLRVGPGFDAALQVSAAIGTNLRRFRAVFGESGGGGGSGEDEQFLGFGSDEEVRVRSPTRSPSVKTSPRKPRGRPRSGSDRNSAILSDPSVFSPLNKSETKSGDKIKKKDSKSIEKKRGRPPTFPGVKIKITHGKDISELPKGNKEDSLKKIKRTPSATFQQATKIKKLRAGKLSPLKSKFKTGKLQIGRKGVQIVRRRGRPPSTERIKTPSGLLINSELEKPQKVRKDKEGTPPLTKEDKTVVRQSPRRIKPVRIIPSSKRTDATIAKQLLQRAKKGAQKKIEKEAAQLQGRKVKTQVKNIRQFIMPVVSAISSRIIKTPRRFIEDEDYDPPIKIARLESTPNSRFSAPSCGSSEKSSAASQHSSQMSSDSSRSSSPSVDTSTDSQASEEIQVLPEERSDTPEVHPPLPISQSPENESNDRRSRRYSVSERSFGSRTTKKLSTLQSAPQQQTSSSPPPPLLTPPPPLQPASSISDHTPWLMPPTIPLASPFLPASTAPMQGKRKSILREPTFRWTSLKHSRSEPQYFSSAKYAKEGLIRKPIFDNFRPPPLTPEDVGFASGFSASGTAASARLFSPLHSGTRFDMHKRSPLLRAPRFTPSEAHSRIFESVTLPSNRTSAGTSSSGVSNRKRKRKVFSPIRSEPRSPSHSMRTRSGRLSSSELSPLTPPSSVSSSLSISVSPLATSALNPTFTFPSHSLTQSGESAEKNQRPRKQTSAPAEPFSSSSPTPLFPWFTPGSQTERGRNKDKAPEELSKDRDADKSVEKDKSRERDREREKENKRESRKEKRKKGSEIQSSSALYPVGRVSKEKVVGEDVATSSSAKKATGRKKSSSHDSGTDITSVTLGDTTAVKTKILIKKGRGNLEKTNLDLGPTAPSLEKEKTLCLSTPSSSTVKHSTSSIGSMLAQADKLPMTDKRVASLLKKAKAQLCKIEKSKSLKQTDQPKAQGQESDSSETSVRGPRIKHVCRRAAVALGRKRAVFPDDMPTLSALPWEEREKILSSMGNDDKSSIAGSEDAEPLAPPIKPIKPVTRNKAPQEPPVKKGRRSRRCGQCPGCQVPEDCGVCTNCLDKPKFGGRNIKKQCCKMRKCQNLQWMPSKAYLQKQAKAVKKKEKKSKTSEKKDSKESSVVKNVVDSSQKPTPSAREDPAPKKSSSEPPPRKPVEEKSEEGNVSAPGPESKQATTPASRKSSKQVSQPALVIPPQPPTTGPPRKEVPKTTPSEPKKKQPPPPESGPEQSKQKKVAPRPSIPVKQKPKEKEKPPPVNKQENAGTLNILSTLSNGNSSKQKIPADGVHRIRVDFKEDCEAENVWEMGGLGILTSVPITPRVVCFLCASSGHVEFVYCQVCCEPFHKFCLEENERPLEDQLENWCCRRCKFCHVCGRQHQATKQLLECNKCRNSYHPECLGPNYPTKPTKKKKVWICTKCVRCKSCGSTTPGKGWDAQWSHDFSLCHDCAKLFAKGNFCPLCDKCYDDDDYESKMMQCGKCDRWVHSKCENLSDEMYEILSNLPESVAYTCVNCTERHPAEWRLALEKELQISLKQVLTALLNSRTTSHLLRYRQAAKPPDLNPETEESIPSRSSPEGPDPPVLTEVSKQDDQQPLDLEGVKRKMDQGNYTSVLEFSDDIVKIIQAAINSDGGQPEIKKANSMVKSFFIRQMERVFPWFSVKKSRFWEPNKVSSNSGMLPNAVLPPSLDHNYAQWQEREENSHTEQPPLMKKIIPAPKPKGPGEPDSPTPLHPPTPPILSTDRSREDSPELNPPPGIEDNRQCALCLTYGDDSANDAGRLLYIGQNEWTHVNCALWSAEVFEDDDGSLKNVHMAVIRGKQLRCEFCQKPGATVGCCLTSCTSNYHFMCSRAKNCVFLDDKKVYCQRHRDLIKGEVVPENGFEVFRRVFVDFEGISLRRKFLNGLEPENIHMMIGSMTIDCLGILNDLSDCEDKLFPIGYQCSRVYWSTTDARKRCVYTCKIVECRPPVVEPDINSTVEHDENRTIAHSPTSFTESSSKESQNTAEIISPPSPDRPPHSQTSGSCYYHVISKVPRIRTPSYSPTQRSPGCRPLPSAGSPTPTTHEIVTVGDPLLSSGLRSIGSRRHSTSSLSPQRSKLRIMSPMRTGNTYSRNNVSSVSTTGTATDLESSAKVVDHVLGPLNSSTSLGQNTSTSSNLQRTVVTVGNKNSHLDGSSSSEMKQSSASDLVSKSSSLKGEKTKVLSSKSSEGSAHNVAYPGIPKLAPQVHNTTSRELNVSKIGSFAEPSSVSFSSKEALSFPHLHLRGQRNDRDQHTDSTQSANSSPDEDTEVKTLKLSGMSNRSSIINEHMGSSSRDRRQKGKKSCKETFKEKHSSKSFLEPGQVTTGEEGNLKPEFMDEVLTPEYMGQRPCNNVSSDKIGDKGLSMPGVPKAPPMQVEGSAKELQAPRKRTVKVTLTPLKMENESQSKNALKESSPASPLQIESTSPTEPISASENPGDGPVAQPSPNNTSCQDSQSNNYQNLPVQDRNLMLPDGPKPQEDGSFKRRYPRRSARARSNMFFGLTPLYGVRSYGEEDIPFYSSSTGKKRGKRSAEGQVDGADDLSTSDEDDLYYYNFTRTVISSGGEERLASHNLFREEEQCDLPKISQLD
Sequence of Histone-lysine N-methyltransferase 2A (Homo sapiens) (Q03164 2719-3969 limits assumed): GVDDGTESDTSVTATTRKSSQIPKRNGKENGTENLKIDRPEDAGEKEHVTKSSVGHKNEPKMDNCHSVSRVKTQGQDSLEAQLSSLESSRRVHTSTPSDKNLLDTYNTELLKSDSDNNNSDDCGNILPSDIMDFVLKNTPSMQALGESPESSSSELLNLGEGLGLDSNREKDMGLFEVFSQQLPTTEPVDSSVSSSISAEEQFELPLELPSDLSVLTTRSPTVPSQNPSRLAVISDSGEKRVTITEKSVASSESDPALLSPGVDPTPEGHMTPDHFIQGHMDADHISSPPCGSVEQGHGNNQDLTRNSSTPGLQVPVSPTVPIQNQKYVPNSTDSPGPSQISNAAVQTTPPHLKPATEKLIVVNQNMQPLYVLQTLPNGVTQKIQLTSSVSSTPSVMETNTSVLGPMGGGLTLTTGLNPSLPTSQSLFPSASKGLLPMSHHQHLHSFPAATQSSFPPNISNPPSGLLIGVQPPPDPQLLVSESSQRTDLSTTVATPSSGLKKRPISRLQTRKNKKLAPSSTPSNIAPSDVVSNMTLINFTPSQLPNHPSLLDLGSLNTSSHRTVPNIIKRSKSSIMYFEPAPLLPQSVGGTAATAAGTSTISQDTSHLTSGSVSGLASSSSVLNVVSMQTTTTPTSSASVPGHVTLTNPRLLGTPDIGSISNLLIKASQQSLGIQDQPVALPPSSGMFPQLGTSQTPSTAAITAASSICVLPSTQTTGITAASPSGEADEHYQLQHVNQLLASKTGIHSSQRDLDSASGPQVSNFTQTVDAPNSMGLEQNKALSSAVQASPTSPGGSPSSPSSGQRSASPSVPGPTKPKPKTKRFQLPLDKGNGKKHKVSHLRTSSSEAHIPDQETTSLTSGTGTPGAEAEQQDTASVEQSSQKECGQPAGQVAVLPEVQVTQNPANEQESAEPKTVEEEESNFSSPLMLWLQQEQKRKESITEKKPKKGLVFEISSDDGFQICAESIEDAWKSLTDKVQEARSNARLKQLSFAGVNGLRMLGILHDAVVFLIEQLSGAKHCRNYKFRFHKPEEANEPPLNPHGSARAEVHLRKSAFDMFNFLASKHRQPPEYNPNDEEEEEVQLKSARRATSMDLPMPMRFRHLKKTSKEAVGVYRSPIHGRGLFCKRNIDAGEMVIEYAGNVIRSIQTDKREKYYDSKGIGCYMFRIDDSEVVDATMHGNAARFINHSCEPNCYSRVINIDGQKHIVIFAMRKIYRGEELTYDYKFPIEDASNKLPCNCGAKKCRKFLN

For `COc1cc(Nc2nc(C)cc(-c3cnn4nc(OC)ccc34)n2)cc(C(F)(F)F)c1`, which % of control [1] is on record?
Its % of control is 66%.

Which % of control [2] does the source give for `CC(=O)Nc1cccc(-n2c(=O)n(C3CC3)c(=O)c3c(Nc4ccc(I)cc4F)n(C)c(=O)c(C)c32)c1` here?
Its % of control is 109%.

Which % of control [3] does the source give for `O=C(NOC[C@H](O)CO)c1ccc(F)c(F)c1Nc1ccc(I)cc1F` here?
Its % of control is 47%.

Which results are given for `CCN(CC)CCCCNc1ncc2cc(-c3cc(OC)cc(OC)c3)c(NC(=O)NC(C)(C)C)nc2n1`?
% of control [4]: 100%; % of control [5]: 100%

With `CN(C(=O)c1cnn2cccnc12)c1cc2c(cc1N1CCOCC1)C(=O)N(C[C@@H](F)C(C)(C)O)C2` as the compound, how does the dTM [6] read?
The dTM was 0 K.

With `COCC(=O)NC/C=C/c1ccc2ncnc(Nc3ccc(Oc4ccc(C)nc4)c(C)c3)c2c1` [CP-724714] as the compound, how does the % of control [7] read?
The % of control was 23%.

With `Cc1cnc(Nc2ccc(F)cc2Cl)nc1-c1c[nH]c(C(=O)N[C@H](CO)c2cccc(Cl)c2)c1` as the compound, how does the % of inhibition [8] read?
Its % of inhibition is 3%.

What does the source list for `Cc1cc([C@@H](C)Nc2ccccc2C(=O)O)c2nc(N3CCOCC3)cc(=O)n2c1` [AZD-6482]?
% of control [9]: 100%; % of control [10]: 96%; % of control [11]: 100%

Which % of inhibition [12] does the source give for `N#Cc1cccc(-c2c[nH]c3ncnc(N4CCOCC4)c23)c1` here?
Its % of inhibition is -4%.

For `CN(C)CCOc1ccc(-c2nc(-c3ccncc3)c(-c3ccc4c(c3)CC/C4=N\O)[nH]2)cc1`, which % of control [13] is on record?
The % of control was 100%.

With `CNC(=O)Nc1ccc(-c2nc(N3CC4CCC(C3)O4)c3cnn(C4CCC5(CC4)OCCO5)c3n2)cc1` as the compound, how does the % of control [14] read?
The % of control was 87%.

Which % of activity ([15]; at 1 µM) does the source give for `Cc1cc(C)cc([C@H]2c3cc(C)ccc3NC(=O)CN2C(=O)c2ccc(Br)s2)c1` here?
Its % of activity is 99.3%.

And the % of activity ([15]; at 10 µM)?
Its % of activity is 100%.
